Experimental data as given in ChEMBL document CHEMBL6178021, “Optimization of Tambjamines Active against Multiple Stages of Malaria Parasites” (J Med Chem, 2025).
Converted amounts (≈) assume the structure as drawn.

Legend:
[1] = (§1) Apparent permeability across apical to basolateral side in MDCK transfected with human MDR1 cells incubated for 1 hr by LC-MS analysis; conditions: dog, mdck, 1 h
Plasmodium falciparum [2] = experiment: microbe, parasite or virus in culture; conditions: Dd2, 72 h
Description: Antiplasmodial activity against asexual blood-stage Plasmodium falciparum Dd2 using 2% haematocrit and 0.2% parasitemia assessed as reduction in fluorescence measured after 72 hrs by Malaria SYBR Green I-based Fluorescence (MSF) assay

[3] = Metabolic stability in mouse liver microsomes assessed as half life measured up to 60 mins by LC/MS analysis; assay type: ADME, Microsome
[4] = Metabolic stability in human liver microsomes assessed as half life measured up to 60 mins by LC/MS analysis; assay type: ADME, Microsome
Plasmodium yoelii [5] = experiment: Antimalarial activity against erythrocytic Plasmodium yoelii MRA-428 infected in CF1 mouse assessed as reduction in parasitemia at 10 mg/kg, po once daily for 4 days measured on day 5; assay type: functional; design: scale not given: the % may be the effect or the level left; conditions: time 4 day
[6] = Solubility of the compound in potassium phosphate buffer at pH 7.4 by UV-vis spectroscopy; conditions: buffer
Plasmodium falciparum [7] = experiment: microbe, parasite or virus in culture; conditions: D6, 72 h
Description: Antiplasmodial activity against asexual blood-stage Plasmodium falciparum D6 using 2% haematocrit and 0.2% parasitemia assessed as reduction in fluorescence measured after 72 hrs by Malaria SYBR Green I-based Fluorescence (MSF) assay

in vitro [8] = conditions: human, liver microsomes
HepG2 = experiment: Cytotoxicity against human HepG2 cells assessed as cell viability measured after 48 hrs by MTT assay; assay type: toxicity, cell-based; conditions: hepg2
Plasmodium yoelii [9] = experiment: Antimalarial activity against erythrocytic Plasmodium yoelii MRA-428 infected in CF1 mouse assessed as reduction in parasitemia at 25 mg/kg, po once daily for 4 days measured on day 5; assay type: functional; design: scale not given: the % may be the effect or the level left; conditions: time 4 day
Plasmodium falciparum [10] = experiment: Antiplasmodial activity against asexual blood-stage Plasmodium falciparum Tm90-C2B using 2% haematocrit and 0.2% parasitemia assessed as reduction in fluorescence measured after 72 hrs by Malaria SYBR Green I-based Fluorescence (MSF) assay; assay type: functional, organism-based
in vitro [11] = conditions: mouse, liver microsomes
MDR1 (human) [12] = experiment: as §1; conditions: dog, MDCK-MDR1
Plasmodium yoelii [13] = experiment: Antimalarial activity against erythrocytic Plasmodium yoelii MRA-428 infected in CF1 mouse assessed as reduction in parasitemia at 80 mg/kg, po once daily for 4 days measured on day 5; assay type: functional; design: scale not given: the % may be the effect or the level left; conditions: time 4 day
Plasmodium yoelii [14] = experiment: Antimalarial activity against erythrocytic Plasmodium yoelii MRA-428 infected in CF1 mouse assessed as cured mouse at 80 mg/kg, po once daily for 4 days measured on day 28 day; assay type: functional, organism-based; conditions: time 4.0 day
in vitro [15] = conditions: human
Description: Selectivity index, ratio of IC50 for cytotoxicity against human HepG2 cells to IC50 for antiplasmodial activity against asexual blood-stage Plasmodium falciparum D6

Plasmodium yoelii [16] = experiment: Antimalarial activity against erythrocytic Plasmodium yoelii MRA-428 infected in CF1 mouse assessed as cured mouse at 25 mg/kg, po once daily for 4 days measured on day 28 day; assay type: functional, organism-based; conditions: time 4.0 day
MDR1 (human) [17] = experiment: Efflux ratio, ratio of apparent permeability across apical to basolateral side over basolateral to apical side in MDCK transfected with human MDR1 cells incubated for 1 hr by LC-MS analysis; conditions: dog
Plasmodium yoelii [18] = experiment: Antimalarial activity against erythrocytic Plasmodium yoelii MRA-428 infected in CF1 mouse assessed as reduction in parasitemia at 50 mg/kg, po once daily for 4 days measured on day 5; assay type: functional; design: scale not given: the % may be the effect or the level left; conditions: time 4 day
MDR1 (human) [19] = experiment: (§2) Apparent permeability across basolateral to apical side in MDCK transfected with human MDR1 cells incubated for 1 hr by LC-MS analysis; conditions: dog, MDCK-MDR1
Plasmodium yoelii [20] = experiment: Antimalarial activity against erythrocytic Plasmodium yoelii MRA-428 infected in CF1 mouse assessed as cured mouse at 50 mg/kg, po once daily for 4 days measured on day 28 day; assay type: functional, organism-based; conditions: time 4.0 day
[21] = as §2; conditions: dog, mdck, 1 h

SMILES | Papp [1] | IC50 (Plasmodium falciparum [2]) | half-life [3] | half-life [4] | Activity (Plasmodium yoelii [5]) | solubility [6] | IC50 (Plasmodium falciparum [7]) | microsomal CLint at 1 h (in vitro [8]) | IC50 (HepG2) | Activity (Plasmodium yoelii [9]) | IC50 (Plasmodium falciparum [10]) | microsomal CLint at 1 h (in vitro [11]) | Papp A→B at 1 h (MDR1 (human) [12]) | Activity (Plasmodium yoelii [16]) | efflux ratio at 1 h (MDR1 (human) [17]) | Activity (Plasmodium yoelii [18]) | Activity (Plasmodium yoelii [20]) | Papp [21] | other results
CCC1=C(CC)/C(=C/NC2CCCCCC2)N=C1c1ccc(Cc2ccc(OC)cc2)[nH]1 | 0.18 ×10⁻⁶ cm/s | 0.00842 µM | > 1 h | > 1 h | 0% | 20.5 µM (≈ 8.85 µg/mL) | 0.00993 µM | 2.23 µL/min/mg | 4.34 µM | 0% | 0.0163 µM | 2.27 µL/min/mg | – | – | – | – | – | – | –
CCC1=C(CC)/C(=C/N[C@H]2CC[C@H](C)CC2)N=C1c1ccc[nH]1 | – | 0.0893 µM | – | – | 88.8% | 205 µM (≈ 63.9 µg/mL) | 0.0679 µM | 59.5 µL/min/mg | – | 100% | 0.0971 µM | 37 µL/min/mg | 0.015 ×10⁻⁶ cm/s | Active; Two Mouse Cured Out Of Four | 8.7 | 100% | Active; Two Mouse Cured Out Of Four | – | Activity (Plasmodium yoelii [13]): 100%; Activity (Plasmodium yoelii [14]): Not active; None Of The Mouse Cured Out Of Four Tested; selectivity ratio (in vitro [15]): 235; Papp B→A at 1 h (MDR1 (human) [19]): 0.13 ×10⁻⁶ cm/s
CCC1=C(CC)/C(=C/NC2CCCCC2)N=C1c1ccc(Cc2ccc(OC)cc2)[nH]1 | 0.15 ×10⁻⁶ cm/s | 0.00725 µM | > 1 h | > 1 h | 0% | 14.4 µM (≈ 6.01 µg/mL) | 0.00926 µM | 3.37 µL/min/mg | 7.81 µM | 0% | 0.0116 µM | 1.94 µL/min/mg | – | – | – | – | – | 0.43 ×10⁻⁶ cm/s | –
COc1ccc(Cc2ccc(C3=N/C(=C\NC4CCCCCC4)C4=C3OCCO4)[nH]2)cc1 | – | 0.0213 µM | > 1 h | > 1 h | 1.5% | 5.52 µM (≈ 2.39 µg/mL) | 0.0119 µM | 16.1 µL/min/mg | 1.48 µM | – | 0.0151 µM | 20.6 µL/min/mg | – | – | – | – | – | 0.57 ×10⁻⁶ cm/s | –
[2H]C([2H])(C)c1ccc(C2=N/C(=C\NC3CCCCCC3)C(C)=C2C)[nH]1 | 0.29 10^-6 cm/s | 0.00591 µM | > 1 h | > 1 h | 78.5% | 42 µM (≈ 13.2 µg/mL) | 0.00508 µM | 14 µL/min/mg | 6.55 µM | 96.5% | 0.0101 µM | 16 µL/min/mg | – | – | – | – | – | 0.007 10^-6 cm/s | –
CCc1ccc(C2=N/C(=C\NC3CCCCCC3)C3=C2CCCC3)[nH]1 | 0.24 ×10⁻⁶ cm/s | 0.00136 µM | > 1 h | > 1 h | 22.7% | 15.4 µM (≈ 5.2 µg/mL) | 0.0048 µM | 8.31 µL/min/mg | 1.06 µM | 100% | 0.00174 µM | 10.3 µL/min/mg | – | Not active; None Of The Mouse Cured Out Of Four Tested | – | 100% | Not active; None Of The Mouse Cured Out Of Four Tested | – | Papp B→A at 1 h (MDR1 (human) [19]): 0.003 ×10⁻⁶ cm/s
CCC1=C(CC)/C(=C/NC2CCCCC2)N=C1c1ccc(Br)[nH]1 | – | 0.336 µM | > 1 h | > 1 h | – | 4.46 µM (≈ 1.68 µg/mL) | – | – | – | – | 0.172 µM | 16 µL/min/mg | 0.004 ×10⁻⁶ cm/s | – | 0.038 | – | – | 0.15 ×10⁻⁶ cm/s | –
CCC1=C(CC)/C(=C/NC23C[C@H]4C[C@@H](C2)C[C@@H](C3)C4)N=C1c1ccc(Br)[nH]1 | – | 0.0246 µM | > 1 h | > 1 h | 33.1% | 25.8 µM (≈ 11.1 µg/mL) | 0.0181 µM | 14.4 µL/min/mg | 4.02 µM | 67.1% | 0.0156 µM | 7.36 µL/min/mg | 0.002 ×10⁻⁶ cm/s | – | 0.23 | – | – | 0.39 ×10⁻⁶ cm/s | selectivity ratio (in vitro [15]): 222
CCC1=C(CC)/C(=C/NC2CCCCCCC2)N=C1c1ccc(CC)[nH]1 | – | 0.00721 µM | > 1 h | > 1 h | 63.1% | < 3.125 µM | 0.0159 µM | 7 µL/min/mg | 2.72 µM | 100% | 0.0078 µM | 14.6 µL/min/mg | – | Not active; None Of The Mouse Cured Out Of Four Tested | – | 100% | Not active; None Of The Mouse Cured Out Of Four Tested | 0.28 ×10⁻⁶ cm/s | –
CCC1=C(CC)/C(=C/NC2CCCCCC2)N=C1c1ccc(C)[nH]1 | – | 0.00383 µM | > 1 h | > 1 h | 92.2% | 35.9 µM (≈ 11.7 µg/mL) | 0.00447 µM | 18.3 µL/min/mg | 4.21 µM | 100% | 0.00902 µM | 16.6 µL/min/mg | 0.007 ×10⁻⁶ cm/s | Not active; None Of The Mouse Cured Out Of Four Tested | – | 100% | Not active; None Of The Mouse Cured Out Of Four Tested | 0.45 ×10⁻⁶ cm/s | –
COc1ccc(Cc2ccc(C3=N/C(=C\NC4CCCCCC4)C4=C3CCCC4)[nH]2)cc1 | 0.7 ×10⁻⁶ cm/s | 0.00556 µM | > 1 h | > 1 h | 0% | 11.4 µM (≈ 4.9 µg/mL) | 0.0061 µM | 3.18 µL/min/mg | 1.34 µM | 0% | 0.0028 µM | 2.07 µL/min/mg | – | – | – | – | – | – | –
CCC1=C(CC)/C(=C/NC23C[C@H]4C[C@@H](C2)C[C@@H](C3)C4)N=C1c1cc2cc(Cl)ccc2[nH]1 | – | 0.133 µM | > 1 h | > 1 h | – | 18.3 µM (≈ 7.94 µg/mL) | 0.106 µM | 8.8 µL/min/mg | 5.02 µM | – | 0.175 µM | 4.72 µL/min/mg | 0.002 ×10⁻⁶ cm/s | – | 0.37 | – | – | 0.85 ×10⁻⁶ cm/s | selectivity ratio (in vitro [15]): 47
